According to patent US20260284005A1, “INHIBITING MITOGEN-ACTIVATED PROTEIN (MAP)/ERK KINASE (MEK)1 AND MEK2 AND RELATED METHODS OF TREATMENT” (priority 2023, published 2026):
Where two headings read alike, the source gives them in different places. Blank lines part the entries; values can stand above or below the molecule they belong to.

Experiments:
MIA PaCa-2 cells = test: 3D-TGA; assay type: cell-based, human
A549 cells = test: 3D-TGA; assay type: cell-based, human; conditions: Homo sapiens; A549, LUN, KRAS G12S; read-out: IC50 in 3D-TGA, CDK-4-6 inhibitor alone
Description: (§1) Cells were seeded in 3D cultures in a black-walled, clear-bottom, non-tissue culture treated, 384-well plate (3000 cells per well) using a 1:1 mixture of BME and a custom media and grown in a humidified incubator with 5% CO2 and 5% O2, which approximates capillary levels for each gas, at 37° C. […] Cells were assessed for cell proliferation using EdU cell proliferation staining. […] Cells were permeabilized with 30 μL of filtered 0.5% Triton X-100 in PBS for 20 minutes at room temperature. Samples were washed twice gently with PBS. Cells were stained utilizing click-iT chemistry by adding 20 μL of staining cocktail containing 2 mM copper sulfate, 8 μM sulfo-Cy5-azide, and 20 mg/ml ascorbic acid in PBS and incubated 30-60 minutes at room temperature in dark. […] Plates were imaged with the Molecular Devices Pico ImageXpress. Images were segmented and percentage of cells with EdU incorporation was quantified to calculate antiproliferative effects of the drugs.
(§2) Five (5)-ethynyl-2′-deoxyuridine (EdU) data was represented as percentage EdU positive cells quantified by high content imaging from the Molecular Devices ImageXpress® Pico.

Calu-6 cells = test: 3D-TGA; assay type: cell-based, human; conditions: Homo sapiens; Calu-6, LUN, KRAS Q61K; read-out: IC50 in 3D-TGA, CDK-4-6 inhibitor alone
Description: as §1, §2

HT-29 cells = test: 3D-TGA; assay type: cell-based, human; conditions: Homo sapiens; HT-29, COL, BRAF V600E; read-out: IC50 in 3D-TGA, CDK-4-6 inhibitor alone
Description: as §1, §2

A-427 cells = test: 3D-TGA; assay type: cell-based, human; conditions: A-427, LUN, KRAS G12D
Description: as §1, §2

LS411N cells = test: 3D-TGA; assay type: cell-based; conditions: Homo sapiens, LS-411N
NCI-H1792 cells = test: 3D-TGA; assay type: cell-based, human
NCI-H508 cells = test: 3D-TGA; assay type: cell-based; conditions: Homo sapiens
SK-CO-1 cells = test: 3D-TGA; assay type: cell-based; conditions: Homo sapiens
NCI-H1975 cells = test: 3D-TGA; assay type: cell-based; conditions: Homo sapiens
NCI-H2172 cells = test: 3D-TGA; assay type: cell-based; conditions: Homo sapiens
NCI-H1650 cells = test: 3D-TGA; assay type: cell-based; conditions: Homo sapiens
NCI-H358 cells = test: 3D-TGA; assay type: cell-based, human
NCI-H820 cells = test: 3D-TGA; assay type: cell-based; conditions: Homo sapiens
[1] = human, in vivo; cited from earlier work
[2] = in vivo
[3] = test system: ERK-induced transcription in Colon-26 tumors; test: Colon-26 tumor RNA sequencing, ERK transcriptome; assay type: in vivo, BALB/c mice; conditions: 100 mg/kg BID PO, day 18, Colon-26
[4] = test system: tumor models (cell lines); test: Humanized 3D tumor growth assay (3D-TGA), tumor model panel / other cell lines; assay type: cell-based, human; conditions: read-out: IC50 in 3D-TGA Ifebemetinib, KRAS G12D, agent alone
From the text: The humanized 3D tumor growth assay (3D-TGA) is an extracellular matrix (ECM)-based, 3D tumor model that more faithfully mimics the human tumor microenvironment (TME) with the goal of improving translational fidelity to patients. See Casneuf T, et al., “Interleukin-6 is a potential therapeutic target in interleukin-6 dependent, estrogen receptor-α-positive breast cancer,” Breast Cancer (Dove Med Press). […] MEK inhibition in the 3D-TGA. […]
All cell lines were validated by IDEXX upon receipt and assay setup. See Appendix for full cell line list.
as §1, §2

LU99 cells = test: 3D-TGA; assay type: cell-based, human; conditions: read-out: IC50 in 3D-TGA Ifebemetinib; LU99, LUN, KRAS G12C; agent alone
Description: as §1, §2

NCI-H2122 cells = test: 3D-TGA; assay type: cell-based, human; conditions: read-out: IC50 in 3D-TGA Ifebemetinib; NCI-H2122, LUN, KRAS G12C; agent alone
Description: as §1, §2

CL-40 cells = test: 3D-TGA; assay type: cell-based, human; conditions: read-out: IC50 in 3D-TGA Ifebemetinib; CL-40, COL, KRAS G12D; agent alone
Description: as §1, §2

PANC-1 cells = test: 3D-TGA; assay type: cell-based, human; conditions: read-out: IC50 in 3D-TGA Ifebemetinib; PANC-1, PAN, KRAS G12D; agent alone
Description: as §1, §2

HPAC cells = test: 3D-TGA; assay type: cell-based, human; conditions: read-out: IC50 in 3D-TGA Ifebemetinib, PAN, KRAS G12D, agent alone
Description: as §1, §2

AsPC-1 cells = test: 3D-TGA; assay type: cell-based, human; conditions: read-out: IC50 in 3D-TGA Ifebemetinib; AsPC-1, PAN, KRAS G12D; agent alone
Description: as §1, §2

NCI-H2030 cells = test: 3D-TGA; assay type: cell-based, human; conditions: read-out: IC50 in 3D-TGA Ifebemetinib; NCI-H2030, LUN, KRAS G12C; agent alone
Description: as §1, §2

HPAF-II cells = test: 3D-TGA; assay type: cell-based, human; conditions: read-out: IC50 in 3D-TGA Ifebemetinib, PAN, KRAS G12D, agent alone
Description: as §1, §2

HCC-44 cells = test: 3D-TGA; assay type: cell-based, human; conditions: read-out: IC50 in 3D-TGA Ifebemetinib; HCC-44, LUN, KRAS G12C; agent alone
Description: as §1, §2

Panc 10.05 cells = test: 3D-TGA; assay type: cell-based, human; conditions: read-out: IC50 in 3D-TGA Ifebemetinib; Panc 10.05, PAN, KRAS G12D; agent alone
Description: as §1, §2

[5] = Homo sapiens, MIA PaCa-2, PAN, KRAS G12C, read-out: IC50 in 3D-TGA, CDK-4-6 inhibitor alone
[6] = Homo sapiens, read-out: IC50 in 3D-TGA, CDK-4-6 inhibitor alone

IC50 (MIA PaCa-2 cells; [5]): 1000 nM | IC50 (A549 cells): 100 to 500 nM | IC50 (Calu-6 cells): 1000 nM | IC50 (HT-29 cells): 1000 nM | IC50 (A-427 cells; [6]): 100 to 500 nM
Molecule: CCN1CCN(Cc2ccc(Nc3ncc(F)c(-c4cc(F)c5nc(C)n(C(C)C)c5c4)n3)nc2)CC1 [Abemaciclib, abemaciclib]

IC50 (MIA PaCa-2 cells; Homo sapiens, MIA PaCa-2, read-out: IC50 in 3D-TGA Afatinib): 1000 nM | IC50 (LS411N cells; read-out: IC50 in 3D-TGA Afatinib): 1000 nM | IC50 (NCI-H1792 cells; Homo sapiens, NCI-H1792, read-out: IC50 in 3D-TGA Afatinib): 1000 nM | IC50 (NCI-H508 cells; NCI-H508, read-out: IC50 in 3D-TGA Afatinib): 500 to 1000 nM | IC50 (SK-CO-1 cells; SK-CO-1, read-out: IC50 in 3D-TGA Afatinib): 1000 nM | IC50 (NCI-H1975 cells; NCI-H1975, read-out: IC50 in 3D-TGA Afatinib): 1000 nM | IC50 (NCI-H2172 cells; NCI-H2172, read-out: IC50 in 3D-TGA Afatinib): 1000 nM | IC50 (NCI-H1650 cells; NCI-H1650, read-out: IC50 in 3D-TGA Afatinib): 1000 nM | IC50 (NCI-H358 cells; Homo sapiens, NCI-H358, read-out: IC50 in 3D-TGA Afatinib): 1000 nM | IC50 (NCI-H820 cells; NCI-H820, read-out: IC50 in 3D-TGA Afatinib): 1000 nM
Molecule: CN(C)C/C=C/C(=O)Nc1cc2c(Nc3ccc(F)c(Cl)c3)ncnc2cc1O[C@H]1CCOC1 [Afatinib, afatinib]

IC50 (MIA PaCa-2 cells; Homo sapiens, read-out: IC50 in 3D-TGA Erlotinib, MIA PACA-2, PAN, KRAS G12C, agent alone): 1000 nM | IC50 (LS411N cells; read-out: IC50 in 3D-TGA Erlotinib, LS411N, COL, BRAF V600E, agent alone): 1000 nM | IC50 (NCI-H1792 cells; Homo sapiens, read-out: IC50 in 3D-TGA Erlotinib, NCI-H1792, LUN, KRAS G12C, agent alone): 1000 nM | IC50 (NCI-H508 cells; read-out: IC50 in 3D-TGA Erlotinib, NCI-H508, COL, BRAF G596R, agent alone): 1000 nM | IC50 (SK-CO-1 cells; read-out: IC50 in 3D-TGA Erlotinib, SK-CO-1, COL, KRAS G12V, agent alone): 1000 nM | IC50 (NCI-H1975 cells; read-out: IC50 in 3D-TGA Erlotinib, NCI-H1975, LUN, EGFR L858R, agent alone): 1000 nM | IC50 (NCI-H2172 cells; read-out: IC50 in 3D-TGA Erlotinib, NCI-H2172, LUN, EGFR L858R, agent alone): 1000 nM | IC50 (NCI-H1650 cells; read-out: IC50 in 3D-TGA Erlotinib, NCI-H1650, LUN, EGFR E746_A750 del, agent alone): 1000 nM | IC50 (NCI-H358 cells; Homo sapiens, read-out: IC50 in 3D-TGA Erlotinib, NCI-H358, LUN, KRAS G12C, agent alone): 1000 nM | IC50 (NCI-H820 cells; read-out: IC50 in 3D-TGA Erlotinib, NCI-H820, LUN, EGFR T790M, agent alone): 1000 nM
Molecule: C#Cc1cccc(Nc2ncnc3cc(OCCOC)c(OCCOC)cc23)c1 [Erlotinib, erlotinib]

IC50 (MIA PaCa-2 cells; [5]): 1000 nM | IC50 (A549 cells): 100 to 500 nM | IC50 (Calu-6 cells): 1000 nM | IC50 (HT-29 cells): 1000 nM | IC50 (A-427 cells; [6]): 500 to 1000 nM
Molecule: CC(=O)c1c(C)c2cnc(Nc3ccc(N4CCNCC4)cn3)nc2n(C2CCCC2)c1=O [Palbociclib, palbociclib]

Molecule: Cn1cnc2c(F)c(Nc3ccc(Br)cc3F)c(C(=O)NOCCO)cc21 [binimetinib]
half-lives [1]: 3.5 h

half-lives per cycle [2]: ≤ 0.55
Molecule: O=C(c1ccc(F)c(F)c1Nc1ccc(I)cc1F)N1CC(O)([C@@H]2CCCCN2)C1 [cobimetinib]

Molecule: Cn1cnc2c(F)c(Nc3ccc(Br)cc3Cl)c(C(=O)NOCCO)cc21 [selumetinib]
ERK transcriptome, 2 h vs 12 h post-dose [3]: sustained MAPK pathway suppression | half-lives [1]: 6.2 h

half-lives per cycle [2]: ≤ 0.25
Molecule: CC(=O)Nc1cccc(-n2c(=O)n(C3CC3)c(=O)c3c(Nc4ccc(I)cc4F)n(C)c(=O)c(C)c32)c1 [trametinib]

IC50 (MIA PaCa-2 cells; read-out: IC50 in 3D-TGA Ifebemetinib, MIA PaCa-2, PAN, KRAS G12C, agent alone): > 1000 nM | IC50 (NCI-H1792 cells; read-out: IC50 in 3D-TGA Ifebemetinib, NCI-H1792, LUN, KRAS G12C, agent alone): > 1000 nM | IC50 ([4]; COLO 678, COL): > 1000 nM | IC50 ([4]; T3M-10, LUN): > 1000 nM | IC50 (LU99 cells): > 1000 nM | IC50 (NCI-H2122 cells): > 1000 nM | IC50 (CL-40 cells): > 1000 nM | IC50 (PANC-1 cells): > 1000 nM | IC50 (HPAC cells): > 1000 nM | IC50 (AsPC-1 cells): > 1000 nM | IC50 (NCI-H2030 cells): 500 to 1000 nM | IC50 (A-427 cells; read-out: IC50 in 3D-TGA Ifebemetinib, agent alone): > 1000 nM | IC50 (HPAF-II cells): > 1000 nM | IC50 (HCC-44 cells): > 1000 nM | IC50 (Panc 10.05 cells): > 1000 nM | IC50 (NCI-H358 cells; read-out: IC50 in 3D-TGA Ifebemetinib, NCI-H358, LUN, KRAS G12C, agent alone): > 1000 nM
Molecule: ifebemetinib
